{"source": "patent US12551493B2", "about": "“Composition for enhancing therapeutic effect of stem cell, comprising immunosuppressant, and method for enhancing therapeutic effect of stem cell using same” (SAMSUNG LIFE PUBLIC WELFARE FOUNDATION, priority 2019, dated 2026)", "type_in_all_cases": "in vivo", "key": {"[1]": {"system": "Iba-1 microglia", "assay": "IHC of Iba-1 microglia in mouse brain after hMSC administration", "settings": "normal C57B/L6 mice, hMSCs plus immunosuppressant, day 7, compared to hMSC group", "protocol": "(§1) On day 7 after administration of MEM or hMSCs, the brain was extracted by performing cardiac perfusion, and then fixed in PFA, and histological staining was performed by sectioning tissue.\n(§2) MEM or hMSCs were administered to normal C57BL/6 and immunodeficient BALB/c nude mice under the same conditions as in Example 3. […]"}, "[2]": {"system": "helper T cells (CD4)", "assay": "IHC of helper T cells (CD4) in mouse brain after hMSC administration", "settings": "normal C57B/L6 mice, hMSCs plus immunosuppressant, day 7, compared to hMSC group", "protocol": "as §1, §2"}, "[3]": {"system": "human-derived mesenchymal stem cells (hMSCs)", "assay": "qPCR of human-specific ALU DNA sequence in mouse brain (residual amount of hMSCs)", "settings": "normal C57B/L6 mice, hMSCs plus immunosuppressant, compared to hMSC-alone administration group"}}}
{"smiles": "C=CC[C@@H]1/C=C(\\C)C[C@H](C)C[C@H](OC)[C@H]2O[C@@](O)(C(=O)C(=O)N3CCCC[C@H]3C(=O)O[C@H](/C(C)=C/[C@@H]3CC[C@@H](O)[C@H](OC)C3)[C@H](C)[C@@H](O)CC1=O)[C@H](C)C[C@@H]2OC", "note": "[tacrolimus]", "values": [{"measurement": "expression of Iba-1 (IHC)", "setting": "[1]", "value": "not statistically significant"}, {"measurement": "expression of CD4 (IHC)", "setting": "[2]", "value": "reduced"}, {"measurement": "retention rate (survival rate) of stem cells (qPCR)", "setting": "[3]", "value": "enhanced"}]}
